Reference: patent US20090305993A1, “METHODS AND COMPOSITION FOR THE TREATMENT OF GASTROINTESTINAL DISORDERS” (IRONWOOD PHARMACEUTICALS, INC., priority 2006, published 2009)
Where a SMILES comes first, the peptide text is derived from it. Bridges are numbered along the chain shown (N, C = ends).

Key:
mice = assay: murine gastrointestinal transit (GIT) assay, acute dosing; format: in vivo, mouse
Procedure: In order to determine whether the peptides increase the rate of gastrointestinal transit, the peptides and controls were tested using a murine gastrointestinal transit (GIT) assay (Moon et al. Infection and Immunity 25:127, 1979). In this assay, charcoal, which can be readily visualized in the gastrointestinal tract is administered to mice after the administration of a test compound. The distance traveled by the charcoal is measured and expressed as a percentage of the total length of the […].
Mice were fasted with free access to water for 12 to 16 hours before the treatment with peptide or control buffer. The peptides were orally administered at 1 μg/kg-1 mg/kg of peptide in buffer (20 mM Tris pH 7.5) 7 minutes before being given an oral dose of 5% Activated Carbon (Aldrich 242276-250G). Control mice were administered buffer only before being given a dose of Activated Carbon. After 15 minutes, the mice were sacrificed and their intestines from the stomach to the cecum were dissected. The total length of the intestine as well as the distance traveled from the stomach to the charcoal front was measured for each animal and the results are expressed as the percent of the total length of the intestine traveled by the charcoal front. All results are reported as the average of 10 mice±standard deviation. A comparison of the distance traveled by the charcoal between the mice treated with peptide versus the mice treated with vehicle alone was performed using a Student's t test and a statistically significant difference was considered for P<0.05. P-values are calculated using a two-sided T-Test assuming unequal variances.

CD1 female mice = assay: murine gastrointestinal transit assay, chronic dosing; format: in vivo, mouse; settings: oral, daily for 5 days; SEQ ID NO:3 0.06 or 0.25 mg/kg; FIG. 4c
Procedure: The identical experiment was performed to determine if SEQ ID NO:3 is effective in a chronic dosing treatment regimen. Briefly, 8 week old CD1 female mice are dosed orally once a day for 5 days with either SEQ ID NO:3 (0.06 mg/kg or 0.25 mg/kg in 20 mM Tris pH 7.5) or vehicle alone (20 mM Tris pH 7.5). On the 5th day, a GIT assay is performed identical to that above except 200 μl of a 10% charcoal solution is administered. […] The results are shown side by side with acute dosing (1 day).

[1] = oral bioavailability in mice, radioimmunoassay (RIA); settings: female, CD-1, mouse, in vivo
Procedure: Oral bioavailability was also determined using a radioimmunoassay (RIA) detection method. Female CD-1 mice (Charles River, Wilmington, Mass.) weighing approximately 25 g (7-8 weeks old) or female CD rats (Charles River, Wilmington, Mass.) weighing approximately 153 g were included in this study. Monoclonal antibody, 20C1 (Brandwein et al. 1985 Infect Immun. 47:242-246), which recognizes SEQ ID NO:7 and 1251 labeled—SEQ ID NO:7, a labeled tracer, were used in these experiments. The labeled tracer was purified by HPLC using a Waters C-18u Bondapak® column (25 cm) previously equilibrated with 10 mM ammonium acetate pH 5.8. […] Blood was drawn from all dosed animals by retro-orbital eye bleeding at specific intervals and test compound levels were analyzed by radioimmunoassay (RIA). […] Radioactivity was measured in a LS 6500 scintillation counter (Beckman-Coulter). The binding efficiency is defined as the percent radioactivity in the B0 sample compared to the input counts. The percent bound in each sample was calculated by the equation: […]
A standard curve was prepared by plotting % B/B0 as a function of the log SEQ ID NO:3 concentration. […] The area under the curve from T=0 to 4 hours (AUC0-4h) was calculated by the software for both p.o. and i.v. dosed animals. […] Oral Bioavailability (F) is calculated using the equation: […]

aminopeptidase = aminopeptidase (Sus scrofa, UniProt P15145); settings: 37° C., up to 24 h
Chain of aminopeptidase (P15145 whole entry): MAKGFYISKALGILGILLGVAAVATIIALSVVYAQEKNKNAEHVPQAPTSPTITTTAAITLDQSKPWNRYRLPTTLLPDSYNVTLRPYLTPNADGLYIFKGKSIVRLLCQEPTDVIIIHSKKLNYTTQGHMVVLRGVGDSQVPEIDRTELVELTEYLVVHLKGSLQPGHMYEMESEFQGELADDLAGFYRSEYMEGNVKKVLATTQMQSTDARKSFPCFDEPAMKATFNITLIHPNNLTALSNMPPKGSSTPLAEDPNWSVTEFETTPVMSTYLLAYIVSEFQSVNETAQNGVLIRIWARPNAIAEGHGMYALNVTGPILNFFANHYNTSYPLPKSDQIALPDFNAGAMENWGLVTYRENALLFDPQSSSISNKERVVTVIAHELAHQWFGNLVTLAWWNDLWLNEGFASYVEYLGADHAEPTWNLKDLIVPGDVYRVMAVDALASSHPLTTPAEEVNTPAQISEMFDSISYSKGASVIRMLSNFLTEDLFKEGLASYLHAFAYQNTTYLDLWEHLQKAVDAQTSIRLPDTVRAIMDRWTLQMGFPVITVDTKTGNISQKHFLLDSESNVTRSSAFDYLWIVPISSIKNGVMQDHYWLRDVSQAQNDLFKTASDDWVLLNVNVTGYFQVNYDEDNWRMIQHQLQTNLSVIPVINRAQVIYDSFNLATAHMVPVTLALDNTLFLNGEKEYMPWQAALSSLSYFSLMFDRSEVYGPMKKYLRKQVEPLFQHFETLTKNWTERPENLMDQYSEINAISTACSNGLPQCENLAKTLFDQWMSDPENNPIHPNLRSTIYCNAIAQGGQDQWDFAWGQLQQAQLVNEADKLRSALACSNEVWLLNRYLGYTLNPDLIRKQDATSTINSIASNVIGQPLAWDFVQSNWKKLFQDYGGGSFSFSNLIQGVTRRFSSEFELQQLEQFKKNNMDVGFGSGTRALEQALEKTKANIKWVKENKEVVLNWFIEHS
Procedure: The stability of SEQ ID NO:3 in the presence of several mammalian digestive enzymes was determined. SEQ ID NO:3 was exposed to a variety of in vitro conditions including digestive enzymes and low ph environments designed to simulate gastric fluid. SEQ ID NO:3 was incubated with chymotrypsin, trypsin, pepsin, aminopeptidase, carboxypeptidase A, and simulated gastric fluid (sgf) at ph 1.0. Samples were collected at 0, 3, and 24 h for all conditions except pepsin digestion and the SGF. For the latter two conditions, samples were obtained at 0, 1, and 3 h. Negative control samples were prepared for initial and final time points. A separate, positive activity control was run in parallel to SEQ ID NO:3. All samples were analyzed by LC/MS
500 μL samples of 0.01 mg/mL SEQ ID NO:3 and chemically synthesized SEQ ID NO:4 (wild type ST; positive control) were prepared in the aminopeptidase reaction buffer (5 mM Tris-HCl, 5 mM MgCl2, pH 7.5) in 2 mL eppendorf tubes. 5 μL of a 5 mg/mL Bestatin hydrochloride (BioChemika, 08170; an aminopeptidase inhibitor) stock was added to each control sample (0 and 24 h), for a final concentration of 0.05 mg/mL. All control and test samples (0, 3, and 24 h) were incubated at 37° C. for 5 min. […] These standards were used to generate a standard curve for quantification of samples. […]

[2] = tested on: wild-type or GC-C KO mice; settings: 5 μg into loop, FIG. 17a
Procedure: The effect of SEQ ID NO:3 on cGMP levels and secretion were studied by injecting SEQ ID NO:3 directly into an isolated loop in either wild-type or GC-C KO mice. This was done by surgically ligating a loop in the small intestine of the mouse. […] The loop was roughly centered and was a length of 1-3 cm. The loops were injected with 100 μl of either SEQ ID NO:3 (5 μg) or vehicle (20 mM Tris, pH 7.5 or Krebs Ringer, 10 mM Glucose, HEPES buffer (KRGH)). Following a recovery time of 90 minutes the loops were excised. Weights were recorded for each loop before and after removal of the fluid contained therein. The length of each loop was also recorded. A weight to length ratio (W/L) for each loop was calculated to determine the effects of SEQ ID NO:3 on secretion.
To determine the effect of SEQ ID NO:3 on cGMP activity, fluid from the loop was collected in ice-cold trichloracetic acid (TCA) and stored at −80° C. for use in an assay to measure cGMP levels in the fluid. Intestinal fluid samples were TCA extracted, and cyclic GMP was measured by EIA according to procedures outlined in the Cayman Chemical Cyclic GMP EIA kit (Cayman Chemical, Ann Arbor, Mich.) to determine cyclic GMP levels in the intestinal fluid of the mouse in the presence of either SEQ ID NO:3 or vehicle.

With C[C@@H]1NC(=O)[C@@H]2CCCN2C(=O)[C@H](CC(N)=O)NC(=O)[C@@H]2CSSC[C@H](N)C(=O)N[C@H]3CSSC[C@H](NC1=O)C(=O)N[C@@H]([C@@H](C)O)C(=O)NCC(=O)N[C@H](C(=O)N[C@@H](Cc1ccc(O)cc1)C(=O)O)CSSC[C@H](NC(=O)[C@H](Cc1ccc(O)cc1)NC(=O)[C@H](CCC(=O)O)NC3=O)C(=O)N2 [SEQ ID NO:3] (H-CCEYCCNPACTGCY-OH; disulfide 1-6, 2-10, 5-13; N-terminus and C-terminus assumed) the “intestinal transit rates versus Tris buffer and Zelnorm” value (mice; chemically synthesized peptides, FIG. 4b) was “increase intestinal transit rates more than either Tris buffer alone or an equivalent dose of Zelnorm®”, the gastrointestinal transit rate (mice; oral, SEQ ID NO:4 0.1 mg/kg, Zelnorm 0.1 mg/kg, FIG. 3a, 3b) was “increase gastrointestinal transit rate” and the “gastrointestinal motility upon chronic dosing” value (CD1 female mice) was “effective”. The AUC ([1]; 8 mg/kg oral, read-out: AUCp.o.,(0-4h)) was at most 11.5 ng·h/mL, the bioavailability ([1]; oral, 8 mg/kg, over 4 hours, read-out: bioavailability (F)) was at most 0.04% and the “Cleavage of SEQ ID NO: 3 by proteolytic substance” value (aminopeptidase) was “not detectable”. For the same compound, the “cGMP activity in ligated loop fluid” value [2] was “no effect” and the “secretion (loop weight to length ratio)” value [2] was “no effect”.
